pIC50: −log10 of the molar value.
Legend:
Type in all cases: biochemical
VEGFR2 = target: T1, VEGFR2 (Homo sapiens, UniProt P35968); experiment: Z'-LYTE in vitro enzyme activity assay, VEGFR2; conditions: 100 μM ATP, 60 minutes, room temperature; read-out: IC50 detected by Z'-LYTE, VEGFR2
T1 construct: purchased Life technology
Method: (§1) The enzyme activity was measured by Z′-LYTE™ Detection Kinase Assay. The IC50 value of the compounds was used as an index to evaluate the inhibitory effect of the compounds on VEGFR2, FGFR1 and PDGFRB.
(§2) Recombinant human VEGFR2 and FGFR1 proteases were purchased from Life technology, PDGFRB Protease was purchased from Millipore.
(§3) Z-LYTE™ Kit Tyr1 and Tyr4 were purchased from Life technology. Multi-microplate reader, Envision (PerkinElmer) read board was used.
(§4) The test compounds were diluted 3 times with a concentration gradient, the final concentration was from 10 μM to 0.17 nM with a total of 11 concentrations, and each concentration had two parallel holes; the content of DMSO in the assay was 1%.
3 nM VEGFR2 protein kinase, 2 μM Tyr1 peptide, 100 μM ATP, 50 mM HEPES (pH 7.5), 10 mM MgCl2, 1 mM EGTA, 0.01% BRIJ-35. The detector plate was Black Proxiplate 384-Plus plate (PerkinElmer), the reaction was performed at room temperature for 60 minutes, and the reaction system was 10 μl.
(§5) The reaction was stopped by adding 5 μl of DV reagent B (1:128) to the kinase reaction solution and incubated at 23° C. for 60 minutes. The Envision instrument was used to read the plate.
(§6) The data was converted to phosphorylation rate and inhibition rate and the 4 parameter curve fitting (Model 205 in XLFIT5, iDBS) was used to get IC50 data of the compounds.

FGFR1 = target: T2, FGFR1 (Homo sapiens, UniProt P11362); experiment: Z'-LYTE in vitro enzyme activity assay, FGFR1; conditions: 25 μM ATP, 60 minutes, room temperature; read-out: IC50 detected by Z'-LYTE, FGFR1
T2 construct: purchased Life technology
T2 sequence (P11362 22-822): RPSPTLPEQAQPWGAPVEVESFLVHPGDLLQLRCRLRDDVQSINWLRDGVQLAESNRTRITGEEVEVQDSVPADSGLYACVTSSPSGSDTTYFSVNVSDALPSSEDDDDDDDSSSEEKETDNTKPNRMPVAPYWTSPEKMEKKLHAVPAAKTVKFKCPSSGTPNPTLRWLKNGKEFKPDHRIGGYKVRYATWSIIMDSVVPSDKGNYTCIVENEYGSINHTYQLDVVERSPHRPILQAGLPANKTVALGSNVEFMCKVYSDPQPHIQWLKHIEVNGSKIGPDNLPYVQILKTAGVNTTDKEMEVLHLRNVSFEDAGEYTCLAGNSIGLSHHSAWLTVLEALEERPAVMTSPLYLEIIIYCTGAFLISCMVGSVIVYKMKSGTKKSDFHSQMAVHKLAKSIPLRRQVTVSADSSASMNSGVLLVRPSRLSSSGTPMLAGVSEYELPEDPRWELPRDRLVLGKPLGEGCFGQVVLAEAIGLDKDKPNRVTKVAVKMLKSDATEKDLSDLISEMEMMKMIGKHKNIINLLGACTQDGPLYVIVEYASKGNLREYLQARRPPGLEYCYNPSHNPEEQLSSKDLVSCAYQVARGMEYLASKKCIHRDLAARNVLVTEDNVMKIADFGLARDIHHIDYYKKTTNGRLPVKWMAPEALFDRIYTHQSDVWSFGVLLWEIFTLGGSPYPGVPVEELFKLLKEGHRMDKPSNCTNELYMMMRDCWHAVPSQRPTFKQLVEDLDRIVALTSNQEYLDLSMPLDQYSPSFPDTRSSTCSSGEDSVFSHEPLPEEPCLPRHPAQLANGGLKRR
Method: as §1, §2, §3, §4
(§7) 1 nM FGFR1 protein kinase, 2 μM Tyr4 peptide, 25 μM ATP, 50 mM HEPES (pH 7.5), 10 mM MgCl2, 1 mM EGTA, 0.01% BRIJ-35, 2 mM MnCl2, 1 mM DTT. The detector plate was Black Proxiplate 384-Plus plate (PerkinElmer), the reaction was performed at room temperature for 60 minutes, and the reaction system was 10 μl.
as §5, §6

PDGFRB = target: T3, PDGFRB (Homo sapiens, UniProt P09619); experiment: Z'-LYTE in vitro enzyme activity assay, PDGFRB; conditions: 100 μM ATP, 60 minutes, room temperature; read-out: IC50 detected by Z'-LYTE, PDGFRB
T3 construct: purchased Millipore
T3 sequence (P09619 33-1106): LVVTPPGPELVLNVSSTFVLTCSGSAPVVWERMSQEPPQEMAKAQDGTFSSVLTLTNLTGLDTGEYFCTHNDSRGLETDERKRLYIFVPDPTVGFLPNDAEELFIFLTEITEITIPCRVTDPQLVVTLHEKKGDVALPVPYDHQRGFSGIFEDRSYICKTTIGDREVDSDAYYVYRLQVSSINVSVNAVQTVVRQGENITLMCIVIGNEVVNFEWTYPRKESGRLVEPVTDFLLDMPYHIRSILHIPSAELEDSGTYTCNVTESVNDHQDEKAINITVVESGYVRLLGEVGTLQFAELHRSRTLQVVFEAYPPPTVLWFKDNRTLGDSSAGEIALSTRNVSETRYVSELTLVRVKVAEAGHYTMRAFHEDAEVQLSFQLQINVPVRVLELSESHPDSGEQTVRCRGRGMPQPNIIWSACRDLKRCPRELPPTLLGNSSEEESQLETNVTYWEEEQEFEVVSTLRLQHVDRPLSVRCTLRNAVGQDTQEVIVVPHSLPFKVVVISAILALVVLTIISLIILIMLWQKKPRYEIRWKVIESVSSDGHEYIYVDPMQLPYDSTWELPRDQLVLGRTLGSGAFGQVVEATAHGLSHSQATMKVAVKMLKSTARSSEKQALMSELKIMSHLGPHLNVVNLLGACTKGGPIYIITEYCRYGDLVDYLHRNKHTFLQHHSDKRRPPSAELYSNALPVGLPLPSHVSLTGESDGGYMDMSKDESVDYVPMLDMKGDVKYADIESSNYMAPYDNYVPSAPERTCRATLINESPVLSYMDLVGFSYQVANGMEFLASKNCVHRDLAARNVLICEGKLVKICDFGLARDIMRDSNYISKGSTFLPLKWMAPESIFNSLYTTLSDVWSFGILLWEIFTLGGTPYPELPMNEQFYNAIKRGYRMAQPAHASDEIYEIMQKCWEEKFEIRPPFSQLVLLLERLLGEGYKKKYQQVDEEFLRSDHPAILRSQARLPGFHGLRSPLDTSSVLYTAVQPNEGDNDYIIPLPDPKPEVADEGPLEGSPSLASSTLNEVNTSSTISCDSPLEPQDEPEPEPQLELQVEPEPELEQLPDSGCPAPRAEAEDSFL
Method: as §1, §2, §3, §4
as §7, with “40 nM PDGFRB” for “1 nM FGFR1”, “40 nM PDGFRB protein kinase,” for “1 nM FGFR1 protein kinase,”, “Tyr4 peptide, 100 μM ATP,” for “Tyr4 peptide, 25 μM ATP,”
as §5, §6

T1 sequence (P35968 20-1356): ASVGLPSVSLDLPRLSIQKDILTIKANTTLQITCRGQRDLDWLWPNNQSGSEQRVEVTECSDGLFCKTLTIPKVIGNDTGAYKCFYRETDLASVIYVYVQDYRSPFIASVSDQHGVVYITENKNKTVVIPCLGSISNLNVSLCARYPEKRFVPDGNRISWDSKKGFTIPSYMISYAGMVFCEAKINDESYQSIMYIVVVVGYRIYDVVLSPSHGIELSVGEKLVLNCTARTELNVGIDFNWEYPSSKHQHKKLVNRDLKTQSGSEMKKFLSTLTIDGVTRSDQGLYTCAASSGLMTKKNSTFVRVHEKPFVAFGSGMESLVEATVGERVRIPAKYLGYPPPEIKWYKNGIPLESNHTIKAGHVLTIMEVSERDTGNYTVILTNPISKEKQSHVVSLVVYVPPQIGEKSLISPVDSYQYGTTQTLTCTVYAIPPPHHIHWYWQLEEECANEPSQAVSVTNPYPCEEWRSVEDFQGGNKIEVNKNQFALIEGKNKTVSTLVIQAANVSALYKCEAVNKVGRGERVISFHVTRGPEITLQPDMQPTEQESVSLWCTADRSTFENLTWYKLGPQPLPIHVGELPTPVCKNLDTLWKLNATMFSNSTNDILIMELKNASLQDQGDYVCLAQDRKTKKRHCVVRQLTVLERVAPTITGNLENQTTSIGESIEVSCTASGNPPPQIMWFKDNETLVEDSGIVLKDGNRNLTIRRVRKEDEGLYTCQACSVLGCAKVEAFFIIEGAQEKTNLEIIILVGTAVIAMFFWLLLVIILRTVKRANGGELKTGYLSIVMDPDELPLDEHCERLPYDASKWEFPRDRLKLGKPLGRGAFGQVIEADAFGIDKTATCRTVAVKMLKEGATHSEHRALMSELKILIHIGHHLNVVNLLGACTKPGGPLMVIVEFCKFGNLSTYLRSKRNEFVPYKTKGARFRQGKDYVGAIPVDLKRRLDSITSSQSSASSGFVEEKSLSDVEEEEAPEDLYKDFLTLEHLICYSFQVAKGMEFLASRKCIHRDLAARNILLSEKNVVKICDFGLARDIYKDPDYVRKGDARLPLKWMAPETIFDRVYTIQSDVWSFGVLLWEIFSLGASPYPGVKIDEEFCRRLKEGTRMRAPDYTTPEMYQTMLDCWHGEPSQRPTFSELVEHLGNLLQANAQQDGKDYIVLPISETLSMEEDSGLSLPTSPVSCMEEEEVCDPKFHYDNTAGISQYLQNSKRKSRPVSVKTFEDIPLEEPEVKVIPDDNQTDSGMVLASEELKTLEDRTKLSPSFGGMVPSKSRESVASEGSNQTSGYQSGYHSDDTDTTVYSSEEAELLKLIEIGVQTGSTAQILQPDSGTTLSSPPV

Row | SMILES | pIC50 (VEGFR2) | pIC50 (FGFR1) | pIC50 (PDGFRB)
1 | COc1cc2nccc(Oc3ccc4c(c3)CCN4C(=S)NC3CC3)c2cc1C(N)=O [Example 24] | 6.00 to 6.70 | 6.00 to 6.70 | 6.00 to 6.70
2 | Cc1c(OCC(C)O)cn2ncnc(Oc3ccc(NC(=S)NC4CC4)c(Cl)c3)c12 (stereo not drawn) [Example 25] | 6.00 to 6.70 | 6.00 to 6.70 | 6.00 to 6.70
3 | COc1cc2nccc(Oc3ccc4c(c3)CCCN4C(=S)NC3CC3)c2cc1C(N)=O [Example 26] | 6.70 to 7.30 | 6.00 to 6.70 | 6.00 to 6.70
4 | COc1cc2nccc(Oc3ccc(NC(=S)NC4CC(O)C4)c(Cl)c3)c2cc1C(N)=O (stereo not drawn) [Example 27] | 6.70 to 7.30 | 6.00 to 6.70 | 6.70 to 7.30
5 | COc1cc2nccc(Oc3ccc(NC(=S)NCCCO)c(Cl)c3)c2cc1C(N)=O [Example 29] | 6.70 to 7.30 | 6.00 to 6.70 | 6.70 to 7.30
6 | COc1cc2nccc(Oc3ccc(NC(=S)NCC(C)(C)O)c(Cl)c3)c2cc1C(N)=O [Example 30] | 6.00 to 6.70 | 6.00 to 6.70 | 6.00 to 6.70
7 | CCN(CC)CCOc1cc2nccc(Oc3ccc(NC(=S)NC4CC4)c(Cl)c3)c2cc1C(N)=O [Example 31] | 6.00 to 6.70 | 6.00 to 6.70 | 6.00 to 6.70
8 | COc1cc2nccc(Oc3ccc(NC(=S)N4CCCC4)c(Cl)c3)c2cc1C(N)=O [Example 32] | > 7.30 | 6.00 to 6.70 | 6.00 to 6.70
9 | COc1cc2nccc(Oc3ccc(NC(=O)NC(C)(C)C(F)(F)F)c(Cl)c3)c2cc1C(N)=O [Example 33] | 6.00 to 6.70 | 6.00 to 6.70 | 6.70 to 7.30
10 | COc1cc2nccc(Oc3ccc4c(c3)CCCN4C(=S)NCC(F)F)c2cc1C(N)=O [Example 34] | 6.00 to 6.70 | 6.00 to 6.70 | 6.70 to 7.30
11 | COc1cc2nccc(Oc3ccc(NC(=S)N4CC(F)(F)C4)c(Cl)c3)c2cc1C(N)=O [Example 35] | > 7.30 | 6.70 to 7.30 | 6.70 to 7.30
12 | COc1cc2nccc(Oc3ccc(NC(=O)NC(C)C(F)(F)F)c(Cl)c3)c2cc1C(N)=O (stereo not drawn) [Example 36] | 6.00 to 6.70 | 6.00 to 6.70 | 6.00 to 6.70
13 | COc1cc2nccc(Oc3ccc(NC(=S)NC4CC4)c(Cl)c3)c2cc1C(=O)NCC(F)F [Example 37] | > 7.30 | 6.00 to 6.70 | 6.70 to 7.30
14 | COc1cc2nccc(Oc3ccc(NC(=S)NC4CC4)c(Cl)c3)c2cc1C(=O)NCC(F)(F)F [Example 38] | 6.70 to 7.30 | 6.00 to 6.70 | 6.00 to 6.70
15 | CCN(CC)CCNC(=O)c1cc2c(Oc3ccc(NC(=S)NC4CC4)c(Cl)c3)ccnc2cc1OC [Example 39] | 6.70 to 7.30 | 6.00 to 6.70 | 6.70 to 7.30
16 | CCN(CC)CCCNC(=O)c1cc2c(Oc3ccc(NC(=S)NC4CC4)c(Cl)c3)ccnc2cc1OC [Example 40] | 6.70 to 7.30 | 6.00 to 6.70 | 6.70 to 7.30
17 | COc1cc2nccc(Oc3ccc(NC(=S)NC4CC4)c(C(F)(F)F)c3)c2cc1C(N)=O [Example 41] | > 7.30 | 6.00 to 6.70 | 6.00 to 6.70
18 | COc1cc2nccc(Oc3ccc(NC(=S)NC4CC4)cc3C(F)(F)F)c2cc1C(N)=O [Example 42] | 6.00 to 6.70 | 6.00 to 6.70 | 6.00 to 6.70
19 | COc1cc2nccc(Oc3ccc(NC(=S)NC4CC4)nc3)c2cc1C(N)=O [Example 43] | 6.00 to 6.70 | 6.00 to 6.70 | > 7.30
20 | O=C1NCOc2cc3nccc(Oc4ccc(NC(=S)NC5CC5)c(Cl)c4)c3cc21 [Example 45] | 6.00 to 6.70 | 6.00 to 6.70 | 6.00 to 6.70
21 | COc1cc2nccc(Oc3ccc(NC(=S)NC4CC4)c(Cl)c3)c2cc1C(=O)N(C)C [Example 47] | 6.00 to 6.70 | 6.00 to 6.70 | 6.00 to 6.70

Row | SMILES | pIC50 (VEGFR2) | pIC50 (FGFR1) | pIC50 (PDGFRB)
22 | COc1cc2nccc(Oc3ccc(NC(=S)NC4CC4)c(Cl)c3)c2cc1C(=O)N1CCCC1 [Example 48] | 6.00 to 6.70 | 6.00 to 6.70 | 6.70 to 7.30
23 | COc1cc2nccc(Oc3ccc(NC(=S)NC4CC4)c(Cl)c3)c2cc1C(=O)N1CCCCC1 [Example 49] | 6.00 to 6.70 | 6.00 to 6.70 | 6.70 to 7.30
24 | COc1cc2nccc(Oc3ccc(NC(=S)N4CCN(C)CC4)c(Cl)c3)c2cc1C(N)=O [Example 51] | 6.00 to 6.70 | 6.00 to 6.70 | 6.70 to 7.30
25 | COc1cc2nccc(Oc3ccc(NC(=S)NC(C)C)c(Cl)c3)c2cc1C(N)=O [Example 52] | > 7.30 | 6.00 to 6.70 | 6.70 to 7.30
26 | COc1cc2nccc(Oc3ccc(NC(=S)NC4CC4)c(Cl)c3)c2cc1C(=O)N1CC(F)(F)C1 [Example 53] | 6.00 to 6.70 | 6.00 to 6.70 | 6.70 to 7.30
27 | COc1cc2nccc(Oc3ccc(NC(=S)NC4CC4)c(Cl)c3)c2cc1C(=O)NC1CC1 [Example 54] | 6.70 to 7.30 | 6.00 to 6.70 | 6.00 to 6.70
28 | COc1cc2nccc(Oc3ccc(NC(N)=S)c(Cl)c3)c2cc1C(N)=O [Example 57] | > 7.30 | 6.00 to 6.70 | 6.70 to 7.30
29 | COc1cc2nccc(Oc3ccc(NC(=S)NC4CC=C(F)CC4)c(Cl)c3)c2cc1C(N)=O (stereo not drawn) [Example 60] | 6.00 to 6.70 | 6.00 to 6.70 | 6.00 to 6.70
30 | COc1cc2nccc(Oc3ccc(NC(=S)NC4CCC(F)(F)CC4)c(Cl)c3)c2cc1C(N)=O [Example 61] | 6.00 to 6.70 | 6.00 to 6.70 | 6.70 to 7.30
31 | COCCNC(=O)c1cc2c(Oc3ccc(NC(=S)NC4CC4)c(Cl)c3)ccnc2cc1OC [Example 62] | 6.70 to 7.30 | 6.00 to 6.70 | 6.00 to 6.70
32 | COc1cc2nccc(Oc3ccc(NC(=S)NCCCSC)c(Cl)c3)c2cc1C(N)=O [Example 63] | 6.70 to 7.30 | 6.00 to 6.70 | > 7.30
33 | COc1cc2nccc(Oc3ccc(NC(=S)Nc4ccc(F)cc4)c(Cl)c3)c2cc1C(N)=O [Example 64] | 6.70 to 7.30 | 6.00 to 6.70 | > 7.30
34 | COc1cc2nccc(Oc3ccc(NC(=S)Nc4ccccc4F)c(Cl)c3)c2cc1C(N)=O [Example 65] | 6.70 to 7.30 | 6.00 to 6.70 | > 7.30
35 | COc1cc2nccc(Oc3ccc(NC(=S)N4CCC(F)(F)C4)c(Cl)c3)c2cc1C(N)=O [Example 66] | 6.70 to 7.30 | 6.00 to 6.70 | 6.00 to 6.70
36 | COc1cc2nccc(Oc3ccc(NC(=S)N4CCC(F)(F)CC4)c(Cl)c3)c2cc1C(N)=O [Example 67] | 6.70 to 7.30 | 6.00 to 6.70 | 6.00 to 6.70
37 | COc1cc2nccc(Oc3ccc(NC(=S)N4CCC4)c(Cl)c3)c2cc1C(N)=O [Example 68] | 6.70 to 7.30 | 6.70 to 7.30 | 6.70 to 7.30
38 | COc1cc2nccc(Oc3ccc(NC(=S)N4CC(O)C4)c(Cl)c3)c2cc1C(N)=O [Example 69] | 6.70 to 7.30 | 6.00 to 6.70 | 6.70 to 7.30
39 | COc1cc2nccc(Oc3ccc(NC(=S)Nc4cnc(C)s4)c(Cl)c3)c2cc1C(N)=O [Example 71] | 6.70 to 7.30 | 6.00 to 6.70 | 6.70 to 7.30
40 | COc1cc(Oc2ccnc3cc(OC)c(C(N)=O)cc23)ccc1NC(=S)NC1CC1 [Example 72] | 6.70 to 7.30 | 6.00 to 6.70 | 6.70 to 7.30
41 | COc1cc2nccc(Oc3ccc(NC(=S)N4CC[C@@H](O)C4)c(Cl)c3)c2cc1C(N)=O [Example 73] | 6.70 to 7.30 | 6.00 to 6.70 | 6.00 to 6.70

Source: patent US10654808B2, “Tyrosine kinase inhibitor and pharmaceutical composition comprising same” (GUANGDONG RAYNOVENT BIOTECH CO., LTD., priority 2015, dated 2020)
